Measurements: patent US6426355B1, “Heterocyclic carboxamide-containing thiourea inhibitors of herpes viruses containing phenylenediamine group” (American Home Products, priority 1998, dated 2002)
In brackets after ≈: the same amount, converted by molar mass.

Tests used:
[1] = test system: HCMV recombinant mutant virus (RV145); assay: HCMV microtiter plate assay (beta-glucuronidase reporter); format: cell-based, Human Cytomegalovirus; settings: HCMV in human foreskin fibroblasts
Excerpt: Ninety-six well plate cultures of human foreskin fibroblasts are infected in the presence of inhibitor compound with a HCMV recombinant mutant virus whose genome contains the prokaryotic beta-glucuronidase gene (Jefferson, R. A., S. M. Burgess, and D. Hirsh. 1986. Beta-glucuronidase from Escherichia coli as a gene fusion marker. Proc. Natl. Acad. Sci. USA 83:8447-8451) whose expression is controlled by a viral promoter. An example of such a virus is RV145 (Jones, T. R., V. P. Muzithras, and Y. Gluzman. 1991. Replacement mutagenesis of the human cytomegalovirus genome: US10 and US11 gene products are nonessential. J. Virol. 65:5860-5872). Since it is under the control of a viral promoter, beta-glucuronidase expression is an indirect indicator of growth and replication of HCMV in this assay. At 96 hours post-infection, the infected cell lysates are prepared (using 50 mM sodium phosphate [pH7.0] containing 0.1% Triton X-100 and 0.1% sarkosyl) and assayed for beta-glucuronidase activity using a substrate for the enzyme which when cleaved yields either a product which can be measured colorimetrically in a spectrophotometer or fluorescently in a microfluorimeter. Examples of such substrates are p-nitrophenyl-beta-D-glucuronide and methylumbelliferylglucuronide, respectively. The presence of an antiviral compound is indicated by the reduced expression of the HCMV genome resident beta-glucuronidase gene, compared to the absence of inhibitor. […] Data from this assay generated using varying amounts of inhibitor compound is also used to estimate the IC50 of an inhibitor compound.

[2] = test system: VZV strain Ellen; assay: VZV Antiviral (ELISA) assay; format: cell-based; settings: VZV strain Ellen in HFF cells
Procedure: For the generation of stock VZV to be used in the assay, VZV strain Ellen (ATCC #VR-1367) is used to infect human foreskin fibroblast (HFF) cells at low multiplicity (less than 0.1) and incubated overnight at 37° C. in 5% CO2. After the overnight incubation, the mixture of uninfected and VZV-infected HFF infected cells are then harvested and added to each well of 96-well plates (3.5×10^4 cells in 100 μl DMEM supplemented with 2% FBS) which contain test compound or the reference standard drug control (in 100 μl DMEM supplemented with 2% FBS per well). These cells are incubated for three days at 37° C. in 5% CO2, then fixed for ELISA assay. The primary antibody is murine anti-VZV glycoprotein II monoclonal antibody (Applied Biosystems, Inc. #13-145-100) and the secondary antibody is goat anti-mouse IgG linked to β-galactosidase. Thus the extent of viral replication is determined by assessing β-galactosidase activity by quantifying the generation of the 4-methyl umbelliferone fluorescent cleavage product after addition of the methyl umbelliferyl-β-D-galactoside (Sigma #M1633) substrate on a microfluorimeter (365 nm for excitation and 450 nm for emission). Antiviral activity (IC50) of the test compound is determined by comparing the flourescence obtained in absence of compound to that obtained in the presence of compound.

CN(C)c1cc(NC(=S)Nc2ccc(NC(=O)c3csnn3)cc2)cc(C(F)(F)F)c1 [Example 571]
IC50 (ug/ml) HCMV [1]: 0.013 µg/mL (≈ 0.0279 µM)
IC50 (ug/ml) VZV [2]: >10 µg/mL

O=C(Nc1ccc(NC(=S)NCc2cccc(Cl)c2)cc1)c1csnn1 [Example 572]
IC50 (ug/ml) HCMV [1]: 0.0078 µg/mL (≈ 0.0193 µM)
IC50 (ug/ml) VZV [2]: >10 µg/mL

O=C(Nc1ccc(NC(=S)NCCc2cccc(F)c2)cc1)c1ccco1 [Example 573]
IC50 (ug/ml) HCMV [1]: 0.05 µg/mL (≈ 0.13 µM)
IC50 (ug/ml) VZV [2]: >10 µg/mL

O=C(Nc1ccc(NC(=S)NCCc2ccccc2)cc1)c1ccco1 [Example 574]
IC50 (ug/ml) HCMV [1]: 0.089 µg/mL (≈ 0.244 µM)
IC50 (ug/ml) VZV [2]: >10 µg/mL

O=C(Nc1ccc(NC(=S)NCCc2ccccc2)cc1)c1csnn1 [Example 575]
IC50 (ug/ml) HCMV [1]: 0.017 µg/mL (≈ 0.0443 µM)
IC50 (ug/ml) VZV [2]: 2 µg/mL (≈ 5.22 µM)

O=C(Nc1ccc(NC(=S)NCc2cc(F)cc(F)c2)cc1)c1ccco1 [Example 579]
IC50 (ug/ml) HCMV [1]: 0.05 µg/mL (≈ 0.129 µM)
IC50 (ug/ml) VZV [2]: 6 µg/mL (≈ 15.5 µM)

O=C(Nc1ccc(NC(=S)NCc2cc(F)cc(F)c2)cc1)c1csnn1 [Example 581]
IC50 (ug/ml) HCMV [1]: 0.01 µg/mL (≈ 0.0247 µM)
IC50 (ug/ml) VZV [2]: >10 µg/mL

O=C(Nc1ccc(NC(=S)NCc2cc(Cl)cc(Cl)c2)cc1)c1ccco1 [Example 582]
IC50 (ug/ml) HCMV [1]: 0.01 µg/mL (≈ 0.0238 µM)
IC50 (ug/ml) VZV [2]: 8 µg/mL (≈ 19 µM)

O=C(Nc1ccc(NC(=S)NCc2cc(Cl)cc(Cl)c2)cc1)c1csnn1 [Example 584]
IC50 (ug/ml) HCMV [1]: 0.0026 µg/mL (≈ 0.00593 µM)
IC50 (ug/ml) VZV [2]: >10 µg/mL

O=C(Nc1ccc(NC(=S)NCc2cc(F)cc(C(F)(F)F)c2)cc1)c1ccco1 [Example 585]
IC50 (ug/ml) HCMV [1]: 0.015 µg/mL (≈ 0.0343 µM)
IC50 (ug/ml) VZV [2]: >10 µg/mL

O=C(Nc1ccc(NC(=S)NCc2cc(F)cc(C(F)(F)F)c2)cc1)c1csnn1 [Example 587]
IC50 (ug/ml) HCMV [1]: 0.005 µg/mL (≈ 0.011 µM)
IC50 (ug/ml) VZV [2]: >10 µg/mL

COc1ccc(CCNC(=S)Nc2ccc(NC(=O)c3ccco3)cc2)cc1OC [Example 611]
IC50 (ug/ml) HCMV [1]: 0.5 µg/mL (≈ 1.18 µM)
IC50 (ug/ml) VZV [2]: >10 µg/mL

O=C(Nc1ccc(NC(=S)NCCCc2ccccc2)cc1)c1ccco1 [Example 612]
IC50 (ug/ml) HCMV [1]: 0.049 µg/mL (≈ 0.129 µM)
IC50 (ug/ml) VZV [2]: 1 µg/mL (≈ 2.64 µM)

O=C(Nc1ccc(NC(=S)NCCCc2ccccc2)cc1)c1csnn1 [Example 613]
IC50 (ug/ml) HCMV [1]: 0.011 µg/mL (≈ 0.0277 µM)
IC50 (ug/ml) VZV [2]: >10 µg/mL

O=C(Nc1ccc(NC(=S)NCCc2cc(C(F)(F)F)cc(C(F)(F)F)c2)cc1)c1ccco1 [Example 614]
IC50 (ug/ml) HCMV [1]: 0.024 µg/mL (≈ 0.0479 µM)
IC50 (ug/ml) VZV [2]: 7 µg/mL (≈ 14 µM)

O=C(Nc1ccc(NC(=S)Nc2ccc(I)c(C(F)(F)F)c2)cc1)c1csnn1 [Example 615]
IC50 (ug/ml) HCMV [1]: 0.005 µg/mL (≈ 0.0091 µM)
IC50 (ug/ml) VZV [2]: >10 µg/mL

CN1CCN(c2ccc(CNC(=S)Nc3ccc(NC(=O)c4csnn4)cc3)cc2C(F)(F)F)CC1 [Example 617]
IC50 (ug/ml) HCMV [1]: 0.013 µg/mL (≈ 0.0243 µM)
IC50 (ug/ml) VZV [2]: >10 µg/mL

CN(C)c1cc(CNC(=S)Nc2ccc(NC(=O)c3csnn3)cc2)cc(C(F)(F)F)c1 [Example 618]
IC50 (ug/ml) HCMV [1]: 0.0016 µg/mL (≈ 0.00333 µM)
IC50 (ug/ml) VZV [2]: >10 µg/mL

O=C(Nc1ccc(NC(=S)NCc2ccc(F)c(C(F)(F)F)c2)cc1)c1csnn1 [Example 624]
IC50 (ug/ml) HCMV [1]: 0.002 µg/mL (≈ 0.00439 µM)
IC50 (ug/ml) VZV [2]: >10 µg/mL

O=C(Nc1ccc(NC(=S)NCc2ccccc2Cl)cc1)c1csnn1 [Example 729]
IC50 (ug/ml) HCMV [1]: 0.02 µg/mL (≈ 0.0495 µM)

O=C(Nc1ccc(NC(=S)NCc2ccccc2F)cc1)c1csnn1 [Example 730]
IC50 (ug/ml) HCMV [1]: 0.033 µg/mL (≈ 0.0852 µM)

O=C(Nc1ccc(NC(=S)NCc2cccc(F)c2)cc1)c1csnn1 [Example 732]
IC50 (ug/ml) HCMV [1]: 0.022 µg/mL (≈ 0.0568 µM)

O=C(Nc1ccc(NC(=S)NCCOc2ccccc2Cl)cc1)c1csnn1 [Example 733]
IC50 (ug/ml) HCMV [1]: 0.018 µg/mL (≈ 0.0415 µM)

O=C(Nc1ccc(NC(=S)NCCOc2ccccc2F)cc1)c1csnn1 [Example 735]
IC50 (ug/ml) HCMV [1]: 0.022 µg/mL (≈ 0.0527 µM)

O=C(Nc1ccc(NC(=S)NCCOc2cccc(F)c2)cc1)c1csnn1 [Example 736]
IC50 (ug/ml) HCMV [1]: 0.012 µg/mL (≈ 0.0287 µM)

O=C(Nc1ccc(NC(=S)Nc2ccc(F)cc2)cc1)c1csnn1 [Example 740]
IC50 (ug/ml) HCMV [1]: 0.1 µg/mL (≈ 0.268 µM)

C[C@H](NC(=S)Nc1ccc(NC(=O)c2csnn2)cc1)c1ccc(Br)cc1 [Example 815]
IC50 (ug/ml) HCMV [1]: 0.0095 µg/mL (≈ 0.0205 µM)
IC50 (ug/ml) VZV [2]: 0.27 µg/mL (≈ 0.584 µM)

C[C@@H](NC(=S)Nc1ccc(NC(=O)c2csnn2)cc1)c1ccc(Br)cc1 [Example 816]
IC50 (ug/ml) HCMV [1]: 0.0053 µg/mL (≈ 0.0115 µM)
IC50 (ug/ml) VZV [2]: >7.5 µg/mL

CC(NC(=S)Nc1ccc(NC(=O)c2csnn2)cc1)c1cc(C(F)(F)F)cc(C(F)(F)F)c1 (centres unmarked) [Example 818]
IC50 (ug/ml) HCMV [1]: 0.0016 µg/mL (≈ 0.00308 µM)
IC50 (ug/ml) VZV [2]: >7.5 µg/mL

C[C@H](NC(=S)Nc1ccc(NC(=O)c2csnn2)cc1)c1ccc(Cl)cc1 [Example 820]
IC50 (ug/ml) HCMV [1]: 0.006 µg/mL (≈ 0.0144 µM)
IC50 (ug/ml) VZV [2]: >7.5 µg/mL

C[C@@H](NC(=S)Nc1ccc(NC(=O)c2csnn2)cc1)c1ccc(Cl)cc1 [Example 821]
IC50 (ug/ml) HCMV [1]: 0.005 µg/mL (≈ 0.012 µM)
IC50 (ug/ml) VZV [2]: >7.5 µg/mL

CC(NC(=S)Nc1ccc(NC(=O)c2csnn2)cc1)c1ccc(C#N)cc1 (centres unmarked) [Example 822]
IC50 (ug/ml) HCMV [1]: 0.018 µg/mL (≈ 0.0441 µM)
IC50 (ug/ml) VZV [2]: >7.5 µg/mL

CC(NC(=S)Nc1ccc(NC(=O)c2cscn2)cc1)c1ccc(Br)cc1 (centres unmarked) [Example 824]
IC50 (ug/ml) HCMV [1]: 0.014 µg/mL (≈ 0.0303 µM)
IC50 (ug/ml) VZV [2]: 0.17 µg/mL (≈ 0.368 µM)

C[C@H](NC(=S)Nc1ccc(NC(=O)c2csnn2)cc1)c1cc(C(F)(F)F)cc(C(F)(F)F)c1 [Example 825]
IC50 (ug/ml) HCMV [1]: 0.0013 µg/mL (≈ 0.0025 µM)
IC50 (ug/ml) VZV [2]: >7.5 µg/mL

CC(NC(=S)Nc1ccc(NC(=O)c2csnn2)cc1)c1ccc(F)c(C(F)(F)F)c1 (centres unmarked) [Example 828]
IC50 (ug/ml) HCMV [1]: 0.002 µg/mL (≈ 0.00426 µM)
IC50 (ug/ml) VZV [2]: >7.5 µg/mL

CC(NC(=S)Nc1ccc(NC(=O)c2cscn2)cc1)c1cc(F)cc(C(F)(F)F)c1 (centres unmarked) [Example 831]
IC50 (ug/ml) HCMV [1]: 0.0011 µg/mL (≈ 0.00235 µM)
IC50 (ug/ml) VZV [2]: >7.5 µg/mL

CC(NC(=S)Nc1ccc(NC(=O)c2cscn2)cc1)c1ccc(C(F)(F)F)cc1F (centres unmarked) [Example 832]
IC50 (ug/ml) HCMV [1]: 0.001 µg/mL (≈ 0.00213 µM)
IC50 (ug/ml) VZV [2]: >7.5 µg/mL

CC(NC(=S)Nc1ccc(NC(=O)c2cscn2)cc1)c1cc(C(F)(F)F)ccc1F (centres unmarked) [Example 833]
IC50 (ug/ml) HCMV [1]: 0.0019 µg/mL (≈ 0.00406 µM)
IC50 (ug/ml) VZV [2]: >7.5 µg/mL

Cc1ccc(C(C)NC(=S)Nc2ccc(NC(=O)c3cscn3)cc2)c(C)c1 (centres unmarked) [Example 834]
IC50 (ug/ml) HCMV [1]: 0.002 µg/mL (≈ 0.00487 µM)
IC50 (ug/ml) VZV [2]: >7.5 µg/mL

CC(NC(=S)Nc1ccc(NC(=O)c2cscn2)cc1)c1ccc(Cl)cc1Cl (centres unmarked) [Example 836]
IC50 (ug/ml) HCMV [1]: 0.004 µg/mL (≈ 0.00886 µM)
IC50 (ug/ml) VZV [2]: >7.5 µg/mL

Cc1cccc(C(C)NC(=S)Nc2ccc(NC(=O)c3cscn3)cc2)c1 (centres unmarked) [Example 837]
IC50 (ug/ml) HCMV [1]: 0.03 µg/mL (≈ 0.0757 µM)
IC50 (ug/ml) VZV [2]: 3.60 µg/mL (≈ 9.08 µM)

CC(NC(=S)Nc1ccc(NC(=O)c2cscn2)cc1)c1ccc(F)c(C(F)(F)F)c1 (centres unmarked) [Example 838]
IC50 (ug/ml) HCMV [1]: 0.0007 µg/mL (≈ 0.00149 µM)
IC50 (ug/ml) VZV [2]: >7.5 µg/mL

CC(NC(=S)Nc1ccc(NC(=O)c2cscn2)cc1)c1ccc(F)cc1Br (centres unmarked) [Example 854]
IC50 (ug/ml) HCMV [1]: 0.02 µg/mL (≈ 0.0417 µM)

CC(NC(=S)Nc1ccc(NC(=O)c2cscn2)cc1)c1ccc(Br)c(Br)c1 (centres unmarked) [Example 855]
IC50 (ug/ml) HCMV [1]: 0.02 µg/mL (≈ 0.037 µM)

CC(NC(=S)Nc1ccc(NC(=O)c2cscn2)cc1)c1ccc(F)c(Cl)c1 (centres unmarked) [Example 856]
IC50 (ug/ml) HCMV [1]: 0.02 µg/mL (≈ 0.046 µM)
